From patent US11643439B2, “Multi-target compound with anticoagulation and antiplatelet activity, preparation method therefor, and use thereof” (SHAANXI MICOT TECHNOLOGY LIMITED COMPANY, priority 2015, dated 2023) come the findings set out here.

Assay [1] relates to experimental cerebral infarction. Nature of the assay: Progressive ischemic stroke (MCAO suture method) in rats. Format: in vivo, rat. To be noted: for Cerebral index / Cerebral infarct volume ratio: 24 hours after the surgery. As for the experimental part: 3.2 Grouping and administration: At 15 min after the mold was established, administration was started by jugular vein intubation, with the first dose and the maintenance dose for 60 min, […], while the model group was administered with physiological saline.
3.3 Experimental operation: Suture method (common carotid artery insertion method): the skin on the neck was cut open from a median incision thereon, and the common, external and internal carotid arteries were isolated therefrom. The common carotid artery was ligated at the heart-proximal end and the external carotid artery was ligated at the distal end. The distal end of the internal carotid artery was temporarily occluded with a small vascular clamp, and at the bifurcation of the common, external and internal carotid arteries, a thread for ligature was reserved. A small opening was cut with an eye scissor on the common carotid artery which was close to the internal carotid artery, to allow a certain degree of bending of the MCAO thread, which inserted into the internal carotid artery along the common carotid artery. During the thread insertion, the thread bended towards the direction of the operator, which was slowly pushed forward about 18 mm (from the bifurcation of the arteries), and terminated when a resistance was felt. The reserved thread was ligated at the bifurcation to fix the thread. At 15 min after the mold was established, the first dose was administered followed by maintenance dose for 60 min, and after the administration was finished, the wound in the neck was sutured in a conventional manner.
4.1 Neurobehavioral scores: Rats in both the groups were evaluated in terms of their neurobehavioral scores at 4, 8, and 24 hours after the surgery, with a Longa five-point quartering method as the standard: 0 point: no neurological defect; 1 point: adduction and failure to full extension of forelimbs on contralateral side when tail lifting; 2 points: rotation to the contralateral side; 3 points: toppling and falling to the contralateral side when walking; 4 points: failure to walk or coma. Cases with 1 to 4 points were classified as valid models.
4.2 observing infarct lesions and infarct volume by TTC staining: At 24 hours after the surgery, the animals were sacrificed and the brain was taken for TTC staining. The infarct volume was calculated by using a mapping software.
4.3 Cerebral index, cerebral water content: The rats in each group were rapidly decapitated 24 hours after the surgery and model establishment, and the whole brain was rapidly peeled off, which was then weighed for wet weight and used to calculate the brain index: Brain index=Brain wet weight/Body weight*100%

In assay [2] the test system is platelet aggregation. Nature of the assay: Platelet aggregation in rabbits, intravenous maintenance administration. Format: in vivo, rabbit. The protocol:
(§1) 2. Grouping and administration: 10 rabbits were randomly divided into 3 groups, 2 to 3 rabbits per group. 1) Sham operation group (NS): Intravenous injection of the same volume of physiological saline, with the same operation method as above; 2) polypeptide 2 administration group: 8.0 mg/kg+20.0 mg/kg/h; 3) positive control enoxaparin group: 50 U/kg+150 U/kg/h. According to the body weight in kilograms of the rabbits, the first dose of the drug to be tested was dissolved in 2 mL of physiological saline for single bolus injection. The maintaining dose was dissolved in 9 ml of physiological saline, and placed in a double-channel micro-injection pump, which was dripped off within 90 minutes at a dripping speed of […]. The sham operation group was administered with the same volume of physiological saline.
(§2) 3.1 Surgery preparation of rabbits: Rabbits were sent to the laboratory for accommodation for one day, and then screened at first. Blood samples were taken from arteries within ears, which were subjected to blood routine analysis and APTT assay, and the rabbits with normal blood hemateikon and APTT between 16s to 28s were selected for experiments. The rabbits to be tested were fasted with free access to water for the night before the experiment. The rabbits were anesthetized with intravenous injection of 3% sodium pentobarbital solution at 1 ml/kg, fixed in the supine position, and then, the common carotid artery at one side, external jugular vein, femoral artery at one side, femoral vein, and forelimb vein at one side were isolated. The forelimb vein was subjected to intubation for administration; the left femoral vein was subjected to intubation for blood collection to determine the platelet aggregation rate; the femoral artery was used for the establishment of an arterial thrombosis model; the common carotid artery and external jugular vein were used for the establishment of an arterial and venous bypass thrombosis model.
4.1 Platelet aggregation rate: At points of 0 min before administration; 30 min. 60 min, 90 min for administration; 60 min, 120 min, 180 min after administration was terminated, 2.7 ml blood samples were taken from the femoral vein, rapidly injected into a centrifuge tube containing 0.3 ml of 3.8% sodium citrate solution, and fully mixed well. The resulted blood samples were centrifuged at 810 rpm (100 g) for 8 min to obtain PRP, and was centrifuged at 3500 rpm (1863 g) for 8 min to obtain PPP which was used to determine platelet aggregation.
Blood samples were taken before administration (0 min), 5 min and 15 min after administration, respectively, to determine the platelet aggregation rate which was used to calculate the inhibitory rate of platelet aggregation with a calculation equation as follows: […]

Assay [3] has as its system FeCl3-induced femoral artery thrombosis. Nature of the assay: FeCl3-induced femoral artery thrombosis in rabbits, intravenous maintenance administration. It counts as in vivo, rabbit. The protocol: as §1, §2
3.2 Arterial thrombosis (AT) model: A small piece of a filter paper (1 cm×1.5 cm) absorbed with 50% FeCl3 solution was applied onto the right femoral artery while administration, below which a small piece of a plastic film (2.5 cm×2.0 cm) was placed to protect surrounding tissues. After 10 minutes, the filter paper was removed, and then, the blood vessels and local tissues were rinsed with warm physiological saline, and the covered blood vessels were cut off. The thrombus which attached to the blood vessel walls was peeled off to be weighed on a tin foil for its wet weight, and then kept overnight at room temperature and weighed for its dry weight.
3.3 Experimental Procedures: The femoral arteries in the […] and both sides in the rabbits were isolated and stabilized for 10 minutes before the administration was started. An AT model was established by covering the femoral artery with a 50% FeCl3 filter paper while administration, and the filter paper was removed after 15 minutes. Observation was continued for 120 min after administration until the experiment was completed.
4.4 Thrombus weight: After the experiment was completed, the segment of the blood vessels in which there had been thrombus formation was cut off, weighed for the wet weight, and then kept overnight at room temperature and weighed for the dry weight. The thrombosis inhibitory rate was calculated with a calculation equation as follows: […]

[4] abbreviates: iv 0.5 + 1.25 (mg/kg + mg/kg/h).
Where [5] appears, read: iv 8.0 + 20.0 (mg/kg + mg/kg/h).

As for “D-Phe Pro Arg Pro Gly Gly Gly Gly Asn Gly Asp Phe Glu Glu Ile Pro Glu Glu Tyr Leu Glu Ala Ala Ala Lys Cys Har Gly Asp Trp Pro Cys [Polypeptide 2]”, the “neurological behaviors (neurobehavioral score, Longa)” value in assay [1] (iv 0.5 + 1.25 (mg/kg + mg/kg/h), 4 h after surgery) is reported as 1.00 ± 0.58; in assay [1] (iv 0.5 + 1.25 (mg/kg + mg/kg/h), 8 h after surgery), 1.00 ± 0.58; in assay [1] (iv 0.5 + 1.25 (mg/kg + mg/kg/h), 24 h after surgery), 1.00 ± 0.58; in assay [1] (iv 1.0 + 2.5 (mg/kg + mg/kg/h), 4 h after surgery), 0.86 ± 1.07; in assay [1] (iv 1.0 + 2.5 (mg/kg + mg/kg/h), 8 h after surgery), 0.86 ± 0.90; in assay [1] (iv 1.0 + 2.5 (mg/kg + mg/kg/h), 24 h after surgery), 1.14 ± 0.69. Moreover, the Cerebral index came out at 0.6648 ± 0.0374 % in assay [1] (setting [4]) and 0.6830 ± 0.0322% in assay [1] (iv 1.0 + 2.5 (mg/kg + mg/kg/h)). Moreover, the “Cerebral infarct volume ratio” value is 11.12 ± 6.56 % in assay [1] (setting [4]); 11.12±6.56% in assay [1] (iv 0.5 + 1.25 (mg/kg + mg/kg/h), listed as polypeptide 2); 8.01 ± 6.66 % in assay [1] (iv 1.0 + 2.5 (mg/kg + mg/kg/h)); 8.01±6.66% in assay [1] (iv 1.0 + 2.5 (mg/kg + mg/kg/h), listed as polypeptide 2). Further, the “inhibitory rate of platelet aggregation” value worked out at 14.1 ± 3.5% in assay [2] (iv 8.0 + 20.0 (mg/kg + mg/kg/h), 60 min after termination); 7.5 ± 1.8% in assay [2] (iv 8.0 + 20.0 (mg/kg + mg/kg/h), 120 min after termination); 47.5 ± 2.5% in assay [2] (iv 8.0 + 20.0 (mg/kg + mg/kg/h), 180 min after termination); 61.0 ± 14.1% in assay [2] (iv 8.0 + 20.0 (mg/kg + mg/kg/h), Administration for 30 min); 72.1 ± 9.6% in assay [2] (iv 8.0 + 20.0 (mg/kg + mg/kg/h), Administration for 60 min); 55.8 ± 7.7% in assay [2] (iv 8.0 + 20.0 (mg/kg + mg/kg/h), Administration for 90 min). Also, the “Thrombus inhibitory rate Dry weight” value in assay [3] (setting [5]) came to 84.9 ± 2.3%. The “Thrombus inhibitory rate Wet weight” value in assay [3] (setting [5]) amounted to 75.6 ± 3.8%. For the same substance, in assay [3] (setting [5]), the “Thrombus weight Dry weight” value was found to be 3.2 ± 2.0 mg. The “Thrombus weight Wet weight” value in assay [3] (setting [5]) turned out to be 14.2 ± 10.2 mg.

For the substance Enoxaparin, the “neurological behaviors (neurobehavioral score, Longa)” value is given as 0.63 ± 0.74 in assay [1] (iv 90 U/kg + 120 U/kg/h, 4 h after surgery); 0.88 ± 0.64 in assay [1] (iv 90 U/kg + 120 U/kg/h, 8 h after surgery); 1.38 ± 0.74 in assay [1] (iv 90 U/kg + 120 U/kg/h, 24 h after surgery). The Cerebral index in assay [1] (iv 90 U/kg + 120 U/kg/h) is listed as 0.6819 ± 0.0356%. In addition, in assay [1] (iv 90 U/kg + 120 U/kg/h), the “Cerebral infarct volume ratio” value was 10.22 ± 5.38 %. Also, the “inhibitory rate of platelet aggregation” value in assay [2] (iv 50 U + 150 U, 60 min after termination) is on record as 0.00%; in assay [2] (iv 50 U + 150 U, 120 min after termination) it was 41.9%; in assay [2] (iv 50 U + 150 U, Administration for 30 min), 26.7%; in assay [2] (iv 50 U + 150 U, Administration for 60 min), 0.00%; in assay [2] (iv 50 U + 150 U, Administration for 90 min), 35.27%. The “Thrombus inhibitory rate Dry weight” value in assay [3] (iv 50 U + 150 U (U/kg+U/kg/h)) was 10 ± 4.2%. In assay [3] (iv 50 U + 150 U (U/kg+U/kg/h)), the “Thrombus inhibitory rate Wet weight” value was found to be 40 ± 5.7%. For the same substance, the “Thrombus weight Dry weight” value in assay [3] (iv 50 U + 150 U (U/kg+U/kg/h)) is 2.3 ± 2.1 mg. In addition, the “Thrombus weight Wet weight” value in assay [3] (iv 50 U + 150 U (U/kg+U/kg/h)) was determined as 3.9 ± 4.0 mg.
